Assays:
Type in all cases: in vivo
[1] = system: corn; assay: Yield, V3-V5 foliar corn treatment (FIG. 9); conditions: statistical data for FIG. 9, yield
From the text: FIG. 9 is a graph showing V3-V5 foliar corn treatment using a synergistic agricultural formula in accordance with the present invention including 7.5 wt. % DFU and 0.01 wt. % cytokinin applied at a Pint/Acre compared to each individual component applied at a Pint/Acre.
(§1) The statistical data for this analysis is provided as follows: […]

[2] = system: corn; assay: Yield in furrow corn treatment (FIG. 8); conditions: statistical data for FIG. 8, yield
From the text: FIG. 8 is a graph showing the yield in furrow corn treatment using a synergistic agricultural formula in accordance with the present invention including 7.5 wt. % DFU, 0.01 wt. % cytokinin, and 0.05 wt. % IAA applied at a Pint/Acre compared to each individual component applied at a Pint/Acre; and
as §1

[3] = system: corn; assay: Yield upon corn seed treatment (FIG. 5); conditions: statistical data for FIG. 5, yield
From the text: (§2) FIG. 5 is a graph showing the yield upon corn seed treatment using a synergistic agricultural formula in accordance with the present invention including 14 wt. % DFU and 10 wt. % of Stollers STIMULATE YE Plant Growth Regulator Mix applied at a Pint/Acre compared to each individual component applied at a Pint/Acre;
as §1

[4] = system: soybean; assay: Yield upon soybean seed treatment (FIG. 7); conditions: statistical data for FIG. 7, yield
From the text: as §2, with “7” for “5”, “soybean” for “corn”
as §1

[5] = system: winter wheat; assay: Yield upon winter wheat seed treatment (FIG. 6); conditions: statistical data for FIG. 6, yield
From the text: as §2, with “6” for “5”, “winter wheat” for “corn”
as §1

Compound: O=CNC(=O)NC=O [15% DFU, N,N′-diformylurea]
- p Vs Combination [1]: 0.0677
- p Vs Control [1]: 0.6829
- p Vs Combination [2]: 0.0622
- p Vs Control [2]: 0.5485
- p Vs Combination [3]: 0.0442
- p Vs Control [3]: 0.8782
- p Vs Combination [4]: 0.052
- p Vs Control [4]: 0.4492
- p Vs Combination [5]: 0.0089
- p Vs Control [5]: 0.0026
